For five compounds, IC50 results are on record in BindingDB's records for doi:10.1021/jm800936s (University of Oxford, 2008).

pIC50: −log10 of the molar value.

One may read the pIC50 as the negative decadic logarithm of the IC50, by convention in mol/L.

For the assay, the target named is T1, Lysine-specific demethylase 4E (Homo sapiens, UniProt B2RXH2).
T1 sequence (B2RXH2 whole entry): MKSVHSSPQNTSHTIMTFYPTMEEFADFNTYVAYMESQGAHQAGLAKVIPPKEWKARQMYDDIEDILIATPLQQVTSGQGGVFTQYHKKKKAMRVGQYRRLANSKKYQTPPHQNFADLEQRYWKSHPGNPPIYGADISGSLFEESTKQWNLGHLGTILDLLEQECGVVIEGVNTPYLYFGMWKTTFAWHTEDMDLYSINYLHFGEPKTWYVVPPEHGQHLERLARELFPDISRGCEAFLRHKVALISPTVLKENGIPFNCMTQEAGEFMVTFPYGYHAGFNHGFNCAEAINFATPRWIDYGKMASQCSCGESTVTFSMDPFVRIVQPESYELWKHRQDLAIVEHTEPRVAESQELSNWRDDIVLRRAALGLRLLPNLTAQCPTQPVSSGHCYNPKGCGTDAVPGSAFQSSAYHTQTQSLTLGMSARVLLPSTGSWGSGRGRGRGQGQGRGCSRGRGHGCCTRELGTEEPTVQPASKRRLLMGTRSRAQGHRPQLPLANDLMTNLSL
Put plainly: FDH Coupled Inhibition Assay. The note with it: pH 7.5; 37 °C. As for the experimental part:
A coupled-assay for JMJD2E activity employing formaldehyde dehydrogenase (FDH) from Pseudomonas putida was developed. Formaldehyde release by demethylation of the histone peptide substrate was monitored by its oxidation to give formate as catalyzed by FDH, which is carried out concomitantly with the reduction of NAD+. The production of NADH was monitored by fluorescence spectroscopy.
In the case of `COC(=O)c1ccnc(-c2cc(C(=O)O)ccn2)c1` [2-[4-(methoxycarbonyl)pyridin-2-yl]pyridine-4-carboxylic acid], the pIC50 is 5.18. As to `CCCC(=O)O` [butanoic acid], the negative logarithm of the IC50 (pIC50) was < 2.00. The result for `O=C(O)c1cccnc1C(=O)O` [pyridine-2,3-dicarboxylic acid] reads < 2.30; that for `O=C(O)c1ccncc1C(=O)O` [pyridine-3,4-dicarboxylic acid], < 2.00; that for `O=C(O)c1cncc(C(=O)O)c1` [pyridine-3,5-dicarboxylic acid], < 2.00.
